pIC50: −log10 of the molar value.
Columns and labels:
PI3K p110α/p85 = molecular target: T1, PI3K p110α/p85 (Homo sapiens, UniProt P42336); assay: PI3K assay ([γ33P]ATP, PtdIns/PtdSer coated plates); format: biochemical; details: 2 μM ATP, 1 hour at RT; read-out: IC50 (PI3Kα)
T1 construct: made in house
Description: Recombinant PI3K p110α/p85 was prepared in-house. Phosphatidylinositol (PtdIns), phosphotidylserine (PtdSer) and all other unspecified chemicals were purchased from Sigma-Aldrich. [γ^33P]ATP and Optiphase scintillant were obtained from Perkin Elmer.
Assays were performed in a final assay volume of 25 μL in 384-well Maxisorp plates (Nunc). Compounds were tested at 8 concentrations in 3-fold serial dilution, generally starting from 10 μM. Maxisorp plates were coated with 20 μL/well of a 1:1 mixture of PtdIns and PtdSer [0.1 mg/mL each dissolved in chloroform:ethanol (3:7)] and left overnight in a fume hood at room temperature (RT) to dry.
The enzyme reaction was created by pipetting 5 μL/well of compound (in 2.5% DMSO), 10 μL/well of enzyme (0.5 μg/mL p110α+1 μg/mL p85), and 10 μL/well of 5 μM ATP with 5 μCi/mL [γ^33P]ATP in assay buffer (final concentrations: 0.2 μg/mL p110α, 2 μM ATP, […] [γ^33P]ATP in 1× assay buffer: 100 mM Tris-HCl pH 7.0, 200 mM NaCl, 8 mM MgCl2). The reaction was incubated for 1 hour at RT and terminated with 30 μL/well of 50 mM EDTA solution. The plate was then washed twice with TBS, dried, and added with 30 μL/well of scintillant before it was counted in a MicroBeta Trilux.

mTOR = mTOR (Homo sapiens, UniProt P42345); assay: mTOR assay (phosphorylation of 4eBP1, [γ33P]-ATP filter plate); format: biochemical; details: 10 μM ATP, 1 hour at room temperature
Description: Truncated mTOR kinase and His-tagged 4eBP1 were produced in-house. [γ^33P]-ATP was purchased from Amersham (GE Healthcare). All chemicals, unless otherwise stated, were from Sigma-Aldrich.
Phosphorylation assays were initially performed in a final volume of 20 μL in 384-well polypropylene plate (Greiner). Compounds were typically tested over the range from 100 μM to 0.006 μM, in 8 step dilutions, in duplicate. 10 μL/well of 2× Enzyme-Substrate solution (1.5 μg/mL mTOR, 40 μg/mL 4eBP1 in 1× assay buffer: 10 mM Hepes pH 7.5, 50 mM NaCl and 10 mM MnCl2) were first added to the sample plate containing 1 μL/well of test compound in neat DMSO. The reaction was initiated by adding 10 μL/well of 20 μM ATP solution (final assay concentration 10 μM ATP and 0.4 μCi/well of [γ^33P]-ATP). After 1 hour incubation at room temperature, the reaction was terminated with 40 μL/well of 20 mM EDTA/1 mM ATP solution.
50 μL/well of the stopped reaction mix was then transferred to 384-well MultiScreenHTS-PH filter plate (Millipore) pre-added with 50 μL/well of 1% phosphoric acid. The plate was washed 4 times with 120 μL/well of 0.5% phosphoric acid via vacuum filtration. Finally, 10 μL/well of Optiphase™ SuperMix liquid scintillation cocktail (Perkin Elmer) was added. After minimum 1 hour of incubation, counting was performed in a Wallac MicroBeta TriLux scintillation counter using coincidence counting mode with crosstalk correction.

DU145 = assay: Cell-based proliferation assay, DU145; details: Homo sapiens, DU-145; DU145 cells, 96 h treatment
Description: Human cancer cell lines PC3 and DU145 (human prostate cancer cell lines), were obtained from ATCC. They were cultured in the media according to the ATCC work instructions. PC3 and DU145 cells were seeded at 1,000 cells per well in 96-well plates, respectively. The plates were incubated at 37° C., 5% CO2, for 24 h. Cells were treated with compounds at various concentrations for 96 h. Cell proliferation was then quantified using Celltiter96 Aqueous One Solution Cell Proliferation Assay from Promega (Madison Wis.). Dose response curves were plotted to determine IC50 values for the compounds using XL-fit (ID Business Solution, Emeryville, Calif.).

mTOR, sequence (P42345 1382-2549 limits assumed): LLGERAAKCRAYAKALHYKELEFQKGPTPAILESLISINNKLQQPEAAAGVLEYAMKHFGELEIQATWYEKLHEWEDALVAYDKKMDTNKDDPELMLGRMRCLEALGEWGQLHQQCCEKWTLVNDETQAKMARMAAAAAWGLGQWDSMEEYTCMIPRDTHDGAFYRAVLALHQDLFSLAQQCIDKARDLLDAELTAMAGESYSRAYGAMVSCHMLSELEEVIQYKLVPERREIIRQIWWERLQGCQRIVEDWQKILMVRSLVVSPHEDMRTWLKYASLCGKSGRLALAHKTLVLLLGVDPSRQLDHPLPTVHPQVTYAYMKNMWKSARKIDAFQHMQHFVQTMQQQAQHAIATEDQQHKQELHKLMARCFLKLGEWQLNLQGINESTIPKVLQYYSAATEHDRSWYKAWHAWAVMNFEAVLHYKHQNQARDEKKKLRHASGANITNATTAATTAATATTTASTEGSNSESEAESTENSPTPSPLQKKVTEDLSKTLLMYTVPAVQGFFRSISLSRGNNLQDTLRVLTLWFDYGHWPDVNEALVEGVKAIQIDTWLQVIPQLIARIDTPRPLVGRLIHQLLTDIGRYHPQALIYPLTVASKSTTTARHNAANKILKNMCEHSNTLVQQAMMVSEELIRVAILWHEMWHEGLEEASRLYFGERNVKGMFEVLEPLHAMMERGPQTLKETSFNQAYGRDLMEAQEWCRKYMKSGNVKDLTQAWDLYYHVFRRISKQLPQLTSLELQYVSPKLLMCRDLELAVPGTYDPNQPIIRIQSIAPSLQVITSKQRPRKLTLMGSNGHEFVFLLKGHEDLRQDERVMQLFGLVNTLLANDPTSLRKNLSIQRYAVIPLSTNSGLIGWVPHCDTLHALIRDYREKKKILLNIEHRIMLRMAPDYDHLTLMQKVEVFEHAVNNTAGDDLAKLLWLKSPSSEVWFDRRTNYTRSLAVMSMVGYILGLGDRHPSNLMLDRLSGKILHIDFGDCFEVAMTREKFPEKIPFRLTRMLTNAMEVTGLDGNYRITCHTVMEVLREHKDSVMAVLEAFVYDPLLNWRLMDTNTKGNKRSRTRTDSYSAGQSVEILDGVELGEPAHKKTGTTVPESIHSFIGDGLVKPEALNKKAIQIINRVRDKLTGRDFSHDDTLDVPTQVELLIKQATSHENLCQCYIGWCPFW
T1 sequence (P42336 whole entry): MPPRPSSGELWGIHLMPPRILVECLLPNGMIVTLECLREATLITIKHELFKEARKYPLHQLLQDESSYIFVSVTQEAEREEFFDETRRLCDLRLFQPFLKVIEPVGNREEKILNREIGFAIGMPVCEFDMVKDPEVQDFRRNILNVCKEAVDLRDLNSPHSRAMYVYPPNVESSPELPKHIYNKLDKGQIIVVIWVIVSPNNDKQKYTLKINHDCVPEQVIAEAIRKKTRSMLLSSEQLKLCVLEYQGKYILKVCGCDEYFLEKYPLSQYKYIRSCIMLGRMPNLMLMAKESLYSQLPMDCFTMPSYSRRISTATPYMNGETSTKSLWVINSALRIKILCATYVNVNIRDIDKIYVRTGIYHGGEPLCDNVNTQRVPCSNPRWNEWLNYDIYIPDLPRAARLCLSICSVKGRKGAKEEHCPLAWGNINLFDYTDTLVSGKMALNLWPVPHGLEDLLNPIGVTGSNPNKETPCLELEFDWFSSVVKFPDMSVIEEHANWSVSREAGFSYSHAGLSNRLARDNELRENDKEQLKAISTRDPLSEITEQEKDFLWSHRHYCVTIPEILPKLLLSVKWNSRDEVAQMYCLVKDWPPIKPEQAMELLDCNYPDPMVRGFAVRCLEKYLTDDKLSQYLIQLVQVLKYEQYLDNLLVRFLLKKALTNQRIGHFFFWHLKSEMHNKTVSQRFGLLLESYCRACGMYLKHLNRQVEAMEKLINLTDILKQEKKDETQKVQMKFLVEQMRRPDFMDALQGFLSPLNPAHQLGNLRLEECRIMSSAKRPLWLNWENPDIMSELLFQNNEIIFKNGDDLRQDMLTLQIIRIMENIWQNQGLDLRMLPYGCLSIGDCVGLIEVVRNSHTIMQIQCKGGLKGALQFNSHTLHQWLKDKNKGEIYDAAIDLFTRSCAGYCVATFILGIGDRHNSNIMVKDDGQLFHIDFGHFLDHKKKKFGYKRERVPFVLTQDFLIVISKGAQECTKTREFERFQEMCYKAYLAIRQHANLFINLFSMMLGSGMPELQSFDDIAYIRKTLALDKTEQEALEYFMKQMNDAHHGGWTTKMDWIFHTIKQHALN
T1 sequence (P27986 whole entry partner): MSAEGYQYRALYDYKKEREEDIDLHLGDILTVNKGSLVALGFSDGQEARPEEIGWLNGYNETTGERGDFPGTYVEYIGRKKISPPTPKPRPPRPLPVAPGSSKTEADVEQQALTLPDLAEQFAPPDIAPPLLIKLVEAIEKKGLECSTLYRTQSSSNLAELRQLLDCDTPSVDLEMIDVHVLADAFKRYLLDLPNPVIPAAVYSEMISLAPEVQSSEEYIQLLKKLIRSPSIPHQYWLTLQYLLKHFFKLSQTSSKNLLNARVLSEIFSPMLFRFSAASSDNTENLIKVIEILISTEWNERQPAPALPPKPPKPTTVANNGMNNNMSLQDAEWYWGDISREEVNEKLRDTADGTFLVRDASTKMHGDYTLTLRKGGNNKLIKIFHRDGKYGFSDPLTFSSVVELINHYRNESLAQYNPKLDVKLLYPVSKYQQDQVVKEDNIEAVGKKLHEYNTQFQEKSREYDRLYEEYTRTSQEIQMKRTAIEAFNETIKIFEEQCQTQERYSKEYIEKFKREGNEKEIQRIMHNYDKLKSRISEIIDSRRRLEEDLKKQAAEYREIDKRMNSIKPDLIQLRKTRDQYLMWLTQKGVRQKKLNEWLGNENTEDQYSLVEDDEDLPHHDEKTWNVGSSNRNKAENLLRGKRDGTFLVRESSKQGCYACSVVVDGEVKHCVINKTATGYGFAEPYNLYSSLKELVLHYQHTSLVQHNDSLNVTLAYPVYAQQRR

Compound | pIC50 (PI3K p110α/p85) | pIC50 (mTOR) | pIC50 (DU145)
N#CCn1cnc2c(-c3cccc(O)c3)nc(N3CCOCC3)nc21 [Compound 35] | > 6.00 | > 6.00 | 5.30 to 6.00
OCc1cccc(-c2nc(N3CCOCC3)nc3c2ncn3Cc2ccccc2)c1 [Compound 1] | > 6.00 | 5.30 to 6.00 | 
Fc1cccc(Cn2cnc3c(-c4ccc5[nH]ccc5c4)nc(N4CCOCC4)nc32)c1 [Compound 47] | < 5.30 | 5.30 to 6.00 | 
CCC(C)n1c(N(C)C)nc2c(-c3cccc(O)c3)nc(N3CCOCC3)nc21 (stereo not shown) [Compound 121] | > 6.00 | > 6.00 | 
COCCn1cnc2c(-c3cccc4[nH]ccc34)nc(N3CCOCC3)nc21 [Compound 79] | > 6.00 | 5.30 to 6.00 | 
c1ccc(Cn2cnc3c(-c4ccc5cc[nH]c5c4)nc(N4CCOCC4)nc32)cc1 [Compound 6] | < 5.30 | < 5.30 | 
O=c1[nH]c2ccc(-c3nc(N4CCOCC4)nc4c3ncn4Cc3ccccc3)cc2[nH]1 [Compound 40] | < 5.30 | < 5.30 | 
O=C(Cn1cnc2c(-c3cccc(O)c3)nc(N3CCOCC3)nc21)Nc1ccccc1 [Compound 89] | > 6.00 | > 6.00 | 
CCNc1nc2c(-c3cccc(O)c3)nc(N3CCOCC3)nc2n1C(C)CC (stereo not shown) [Compound 122] | > 6.00 | > 6.00 | 
Nc1ccc(-c2nc(N3CCOCC3)nc3c2ncn3Cc2cccc([N+](=O)[O-])c2)cn1 [Compound 131] | > 6.00 | > 6.00 | 
CCC(C)n1c(Cl)nc2c(-c3cccc(O)c3)nc(N3CCOCC3)nc21 (stereo not shown) [Compound 129] | > 6.00 | > 6.00 | 
Oc1cccc(-c2nc(N3CCOCC3)nc3c2ncn3Cc2cccc(OC(F)(F)F)c2)c1 [Compound 12] | < 5.30 | 5.30 to 6.00 | 
CC(C1CC1)n1cnc2c(-c3cccc4[nH]ccc34)nc(N3CCOCC3)nc21 (stereo not shown) [Compound 91] | > 6.00 | > 6.00 | 
CCC(C)n1cnc2c(-c3cccc4[nH]ncc34)nc(N3CCOCC3)nc21 (stereo not shown) [Compound 109] | > 6.00 | > 6.00 | 
Oc1cccc(-c2nc(N3CCOCC3)nc3c2ncn3Cc2cc(F)cc(F)c2)c1 [Compound 37] | > 6.00 | > 6.00 | 
CS(=O)(=O)Nc1cccc(-c2nc(N3CCOCC3)nc3c2ncn3Cc2ccccc2)c1 [Compound 43] | < 5.30 | < 5.30 | 
CC(C)C(C)n1cnc2c(-c3ccc(N)nc3)nc(N3CCOCC3)nc21 (stereo not shown) [Compound 136] | > 6.00 | > 6.00 | 
CCC(C)n1cnc2c(-c3cccc(O)c3)nc(N3CCOCC3)nc21 (stereo not shown) [Compound 90] | > 6.00 | > 6.00 | 
COc1cccc(Cn2cnc3c(-c4cccc(O)c4)nc(N4CCOCC4)nc32)c1 [Compound 17] | > 6.00 | > 6.00 | 
CCC(C)n1c(NCCN(C)C)nc2c(-c3cccc(O)c3)nc(N3CCOCC3)nc21 (stereo not shown) [Compound 127] | > 6.00 | > 6.00 | 
CC(=O)Nc1ccc(Cn2cnc3c(-c4cccc(O)c4)nc(N4CCOCC4)nc32)cc1 [Compound 32] | > 6.00 | 5.30 to 6.00 | 
CCCCN1CCC(n2cnc3c(-c4cccc(O)c4)nc(N4CCOCC4)nc32)CC1 [Compound 88] | > 6.00 | > 6.00 | 
Oc1ccc(-c2nc(N3CCOCC3)nc3c2ncn3Cc2ccccc2)cc1 [Compound 5] | < 5.30 | 5.30 to 6.00 | 
CCC(C#N)n1cnc2c(-c3ccc(N)nc3)nc(N3CCOCC3)nc21 (stereo not shown) [Compound 137] | 5.30 to 6.00 | > 6.00 | 

Compound | pIC50 (PI3K p110α/p85) | pIC50 (mTOR) | pIC50 (DU145)
CS(=O)(=O)N1CCN(CCn2cnc3c(-c4cccc(O)c4)nc(N4CCOCC4)nc32)CC1 [Compound 108] | > 6.00 | > 6.00 | 
CCC(C)n1c(S(C)(=O)=O)nc2c(-c3cccc(O)c3)nc(N3CCOCC3)nc21 (stereo not shown) [Compound 130, 3-(9-sec-Butyl-8-methanesulfonyl-2-morpholin-4-yl-9H-purin-6-yl)-phenol] | > 6.00 | > 6.00 | 
CC1CCC(n2cnc3c(-c4cccc(O)c4)nc(N4CCOCC4)nc32)CC1 (stereo not shown) [Compound 61] | > 6.00 | > 6.00 | 
c1ccc(Cn2cnc3c(-c4ccc5[nH]ccc5c4)nc(N4CCOCC4)nc32)cc1 [Compound 58] | < 5.30 | 5.30 to 6.00 | 
CCCCNc1nc2c(-c3cccc(O)c3)nc(N3CCOCC3)nc2n1C(C)CC (stereo not shown) [Compound 120] | > 6.00 | > 6.00 | 
CC(=O)Nc1cccc(-c2nc(N3CCOCC3)nc3c2ncn3Cc2ccccc2)c1 [Compound 4] | < 5.30 | < 5.30 | 
Oc1cccc(-c2nc(N3CCOCC3)nc3c2ncn3Cc2ccc(C(F)(F)F)cc2)c1 [Compound 30] | 5.30 to 6.00 | 5.30 to 6.00 | 
Nc1cccc(-c2nc(N3CCOCC3)nc3c2ncn3Cc2ccccc2)c1 [Compound 29] | < 5.30 | 5.30 to 6.00 | 
CCN(CC)CCn1cnc2c(-c3cccc(O)c3)nc(N3CCOCC3)nc21 [Compound 98] | > 6.00 | < 5.30 | 
Oc1cccc(-c2nc(N3CCOCC3)nc3c2ncn3Cc2c(F)cccc2F)c1 [Compound 7] | > 6.00 | > 6.00 | 
CC(C)NC(=O)Cn1cnc2c(-c3cccc(O)c3)nc(N3CCOCC3)nc21 [Compound 83] | > 6.00 | 5.30 to 6.00 | 
CS(=O)(=O)Nc1ccc(Cn2cnc3c(-c4cccc(O)c4)nc(N4CCOCC4)nc32)cc1 [Compound 42] | > 6.00 | 5.30 to 6.00 | 
c1cc2[nH]nnc2cc1-c1nc(N2CCOCC2)nc2c1ncn2CC1CC1 [Compound 64] | 5.30 to 6.00 | < 5.30 | 
Nc1ccc(-c2nc(N3CCOCC3)nc3c2ncn3C2CCCC2)cn1 [Compound 133] | > 6.00 | > 6.00 | 
COCCn1cnc2c(-c3cccc(O)c3)nc(N3CCOCC3)nc21 [Compound 11, 3-[9-(2-Methoxy-ethyl)-2-morpholin-4-yl-9H-purin-6-yl]-phenol] | > 6.00 | > 6.00 | 
O=[N+]([O-])c1cccc(Cn2cnc3c(-c4cccc(O)c4)nc(N4CCOCC4)nc32)c1 [Compound 31] | > 6.00 | > 6.00 | 
CCC(C)n1cnc2c(-c3ccc(N)nc3)nc(N3CCOCC3)nc21 (stereo not shown) [Compound 132, 5-(9-sec-Butyl-2-morpholin-4-yl-9H-purin-6-yl)-pyridin-2-ylamine] | > 6.00 | > 6.00 | 
C#CCn1cnc2c(-c3cccc(O)c3)nc(N3CCOCC3)nc21 [Compound 53] | > 6.00 | > 6.00 | 
CS(=O)(=O)N1CCN(C(=O)Cn2cnc3c(-c4cccc(O)c4)nc(N4CCOCC4)nc32)CC1 [Compound 107] | > 6.00 | > 6.00 | 
CS(=O)(=O)N1CCC(n2cnc3c(-c4cccc5[nH]ccc45)nc(N4CCOCC4)nc32)CC1 [Compound 111] | > 6.00 | > 6.00 | 
O=C(Cc1cccnc1)N1CCC(n2cnc3c(-c4cccc5[nH]ccc45)nc(N4CCOCC4)nc32)CC1 [Compound 105] | > 6.00 | > 6.00 | 
CC(C)n1cnc2c(-c3ccc(N)nc3)nc(N3CCOCC3)nc21 [Compound 135] | > 6.00 | > 6.00 | 
CCC(C#N)n1cnc2c(-c3cccc4[nH]ccc34)nc(N3CCOCC3)nc21 (stereo not shown) [Compound 102] | > 6.00 | 5.30 to 6.00 | 
O=[N+]([O-])c1ccc(Cn2cnc3c(-c4cccc(O)c4)nc(N4CCOCC4)nc32)cc1 [Compound 19, 3-[2-Morpholin-4-yl-9-(4-nitro-benzyl)-9H-purin-6-yl]-phenol] | > 6.00 | > 6.00 | 
